# Experimental data: patent publication US20100267561A1, “HERBICIDAL PYRIDAZINONE DERIVATIVES” (priority 2007, published 2010)
# Tests used:
# Assay in all cases: Test E pre-/postemergence plant response
# Assay type in all cases: in vivo
# [1] = system: Italian ryegrass (Lolium multiflorum); conditions: scale 0 to 100
# How it was run: (§1)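 Greenhouse test. Compound, formulated in a non-phytotoxic solvent with surfactant, is applied preemergence to planted seeds and postemergence to 1- to 4-leaf plants of 2 to 18 cm. Plants are compared with controls after 14 to 21 days and scored 0 (no effect) to 100 (complete control).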
# [2] = system: bermudagrass (Cynodon dactylon); conditions: scale 0 to 100
# How it was run: as §1
# [3] = system: black mustard (Brassica nigra); conditions: scale 0 to 100
# How it was run: as §1
# [4] = system: common chickweed (Stellaria media); conditions: Postemergence, scale 0 to 100
# How it was run: as §1
# [5] = system: common purslane (Portulaca oleracea); conditions: scale 0 to 100
# How it was run: as §1
# [6] = system: dallisgrass (Paspalum dilatatum); conditions: scale 0 to 100
# How it was run: as §1
# [7] = system: goosegrass (Eleusine indica); conditions: scale 0 to 100
# How it was run: as §1
# [8] = system: green foxtail (Setaria viridis); conditions: scale 0 to 100
# How it was run: as §1
# [9] = system: johnsongrass (Sorghum halepense); conditions: scale 0 to 100
# How it was run: as §1
# [10] = system: large crabgrass (Digitaria sanguinalis); conditions: scale 0 to 100
# How it was run: as §1
# [11] = system: purple nutsedge (Cyperus rotundus); conditions: scale 0 to 100
# How it was run: as §1
# [12] = system: southern (S.) sandbur (Cenchrus echinatus); conditions: scale 0 to 100
# How it was run: as §1
structure (smiles),measurement,setting,value
Cn1ncc(O)c(-c2nn(-c3ccc(Cl)cc3)cc2Br)c1=O [Compound 31],"Plant response rating, Ryegrass, Italian","[1]; 16 g ai/ha, Preemergence",65
same,"Plant response rating, Ryegrass, Italian","[1]; 31 g ai/ha, Preemergence",90
same,"Plant response rating, Ryegrass, Italian","[1]; 62 g ai/ha, Preemergence",100
same,"Plant response rating, Ryegrass, Italian","[1]; Postemergence, 8 g ai/ha",30
same,"Plant response rating, Ryegrass, Italian","[1]; Postemergence, 16 g ai/ha",35
same,"Plant response rating, Ryegrass, Italian","[1]; Postemergence, 31 g ai/ha",50
same,"Plant response rating, Ryegrass, Italian","[1]; Postemergence, 62 g ai/ha",90
same,"Plant response rating, Bermudagrass","[2]; 8 g ai/ha, Preemergence",0
same,"Plant response rating, Bermudagrass","[2]; 16 g ai/ha, Preemergence",75
same,"Plant response rating, Bermudagrass","[2]; 31 g ai/ha, Preemergence",95
same,"Plant response rating, Bermudagrass","[2]; 62 g ai/ha, Preemergence",100
same,"Plant response rating, Bermudagrass","[2]; Postemergence, 8 g ai/ha",65
same,"Plant response rating, Bermudagrass","[2]; Postemergence, 16 g ai/ha",75
same,"Plant response rating, Bermudagrass","[2]; Postemergence, 31 g ai/ha",90
same,"Plant response rating, Bermudagrass","[2]; Postemergence, 62 g ai/ha",95
same,"Plant response rating, Mustard, Black","[3]; 8 g ai/ha, Preemergence",0
same,"Plant response rating, Mustard, Black","[3]; 16 g ai/ha, Preemergence",0
same,"Plant response rating, Mustard, Black","[3]; 31 g ai/ha, Preemergence",0
same,"Plant response rating, Mustard, Black","[3]; 62 g ai/ha, Preemergence",0
same,"Plant response rating, Mustard, Black","[3]; Postemergence, 8 g ai/ha",0
same,"Plant response rating, Mustard, Black","[3]; Postemergence, 16 g ai/ha",0
same,"Plant response rating, Mustard, Black","[3]; Postemergence, 31 g ai/ha",0
same,"Plant response rating, Mustard, Black","[3]; Postemergence, 62 g ai/ha",0
same,"Plant response rating, Chickweed",[4]; 8 g ai/ha,0
same,"Plant response rating, Chickweed",[4]; 16 g ai/ha,0
same,"Plant response rating, Chickweed",[4]; 31 g ai/ha,0
same,"Plant response rating, Purslane","[5]; 16 g ai/ha, Preemergence",0
same,"Plant response rating, Purslane","[5]; 31 g ai/ha, Preemergence",0
same,"Plant response rating, Purslane","[5]; 62 g ai/ha, Preemergence",0
same,"Plant response rating, Purslane","[5]; Postemergence, 8 g ai/ha",0
same,"Plant response rating, Purslane","[5]; Postemergence, 16 g ai/ha",0
same,"Plant response rating, Purslane","[5]; Postemergence, 31 g ai/ha",0
same,"Plant response rating, Purslane","[5]; Postemergence, 62 g ai/ha",0
same,"Plant response rating, Dallisgrass","[6]; 8 g ai/ha, Preemergence",0
same,"Plant response rating, Dallisgrass","[6]; 16 g ai/ha, Preemergence",15
same,"Plant response rating, Dallisgrass","[6]; 31 g ai/ha, Preemergence",75
same,"Plant response rating, Dallisgrass","[6]; 62 g ai/ha, Preemergence",98
same,"Plant response rating, Dallisgrass","[6]; Postemergence, 8 g ai/ha",35
same,"Plant response rating, Dallisgrass","[6]; Postemergence, 16 g ai/ha",40
same,"Plant response rating, Dallisgrass","[6]; Postemergence, 31 g ai/ha",60
same,"Plant response rating, Dallisgrass","[6]; Postemergence, 62 g ai/ha",70
same,"Plant response rating, Goosegrass","[7]; 8 g ai/ha, Preemergence",20
same,"Plant response rating, Goosegrass","[7]; 16 g ai/ha, Preemergence",35
same,"Plant response rating, Goosegrass","[7]; 31 g ai/ha, Preemergence",100
same,"Plant response rating, Goosegrass","[7]; 62 g ai/ha, Preemergence",100
same,"Plant response rating, Goosegrass","[7]; Postemergence, 8 g ai/ha",35
same,"Plant response rating, Goosegrass","[7]; Postemergence, 16 g ai/ha",50
same,"Plant response rating, Goosegrass","[7]; Postemergence, 31 g ai/ha",70
same,"Plant response rating, Goosegrass","[7]; Postemergence, 62 g ai/ha",75
same,"Plant response rating, Foxtail, Green","[8]; 8 g ai/ha, Preemergence",0
same,"Plant response rating, Foxtail, Green","[8]; 16 g ai/ha, Preemergence",5
same,"Plant response rating, Foxtail, Green","[8]; 31 g ai/ha, Preemergence",60
same,"Plant response rating, Foxtail, Green","[8]; 62 g ai/ha, Preemergence",90
same,"Plant response rating, Foxtail, Green","[8]; Postemergence, 8 g ai/ha",50
same,"Plant response rating, Foxtail, Green","[8]; Postemergence, 16 g ai/ha",60
same,"Plant response rating, Foxtail, Green","[8]; Postemergence, 31 g ai/ha",70
same,"Plant response rating, Foxtail, Green","[8]; Postemergence, 62 g ai/ha",75
same,"Plant response rating, Johnsongrass","[9]; 16 g ai/ha, Preemergence",25
same,"Plant response rating, Johnsongrass","[9]; 31 g ai/ha, Preemergence",80
same,"Plant response rating, Johnsongrass","[9]; 62 g ai/ha, Preemergence",98
same,"Plant response rating, Johnsongrass","[9]; Postemergence, 8 g ai/ha",40
same,"Plant response rating, Johnsongrass","[9]; Postemergence, 16 g ai/ha",60
same,"Plant response rating, Johnsongrass","[9]; Postemergence, 31 g ai/ha",75
same,"Plant response rating, Johnsongrass","[9]; Postemergence, 62 g ai/ha",100
same,"Plant response rating, Crabgrass, Large","[10]; 8 g ai/ha, Preemergence",0
same,"Plant response rating, Crabgrass, Large","[10]; 16 g ai/ha, Preemergence",40
same,"Plant response rating, Crabgrass, Large","[10]; 31 g ai/ha, Preemergence",75
same,"Plant response rating, Crabgrass, Large","[10]; 62 g ai/ha, Preemergence",95
same,"Plant response rating, Crabgrass, Large","[10]; Postemergence, 8 g ai/ha",60
same,"Plant response rating, Crabgrass, Large","[10]; Postemergence, 16 g ai/ha",65
same,"Plant response rating, Crabgrass, Large","[10]; Postemergence, 31 g ai/ha",75
same,"Plant response rating, Crabgrass, Large","[10]; Postemergence, 62 g ai/ha",80
same,"Plant response rating, Nutsedge, Purple","[11]; 16 g ai/ha, Preemergence",0
same,"Plant response rating, Nutsedge, Purple","[11]; 31 g ai/ha, Preemergence",0
same,"Plant response rating, Nutsedge, Purple","[11]; 62 g ai/ha, Preemergence",0
same,"Plant response rating, Nutsedge, Purple","[11]; Postemergence, 8 g ai/ha",0
same,"Plant response rating, Nutsedge, Purple","[11]; Postemergence, 16 g ai/ha",0
same,"Plant response rating, Nutsedge, Purple","[11]; Postemergence, 31 g ai/ha",0
same,"Plant response rating, Nutsedge, Purple","[11]; Postemergence, 62 g ai/ha",0
same,"Plant response rating, Sandbur, S.","[12]; 16 g ai/ha, Preemergence",15
same,"Plant response rating, Sandbur, S.","[12]; 31 g ai/ha, Preemergence",20
same,"Plant response rating, Sandbur, S.","[12]; 62 g ai/ha, Preemergence",90
same,"Plant response rating, Sandbur, S.","[12]; Postemergence, 8 g ai/ha",0
same,"Plant response rating, Sandbur, S.","[12]; Postemergence, 16 g ai/ha",70
same,"Plant response rating, Sandbur, S.","[12]; Postemergence, 31 g ai/ha",75
same,"Plant response rating, Sandbur, S.","[12]; Postemergence, 62 g ai/ha",75
